Measured values reported in the NIST ThermoML archive (doi:10.1016/j.jct.2016.03.001).

Experiment: molar heat capacity at constant pressure
Details: 101.33 kPa, Crystal, Small sample (50 mg) DSC

O=[PH](O)O [phosphonic acid]
Details | molar heat capacity at constant pressure [J/K/mol]
243.2 K | 48.3
244.2 K | 48.54
245.2 K | 48.62
246.2 K | 48.87
247.2 K | 49.03
248.2 K | 49.36
249.2 K | 49.69
250.2 K | 49.77
251.2 K | 50.1
252.2 K | 50.35
253.2 K | 50.59
254.2 K | 50.59
255.2 K | 50.84
256.2 K | 51
257.2 K | 51.08
258.2 K | 51.17
259.2 K | 51.33
260.2 K | 51.49
261.2 K | 51.9
262.2 K | 52.15
263.2 K | 52.48
264.2 K | 52.72
265.2 K | 52.97
266.2 K | 53.22
267.2 K | 53.54
268.2 K | 53.87
269.2 K | 54.2
270.2 K | 54.28
271.2 K | 54.45
272.2 K | 54.69
273.2 K | 54.86
274.2 K | 55.35
275.2 K | 55.76
276.2 K | 57.81
277.2 K | 58.46
278.2 K | 57.32
279.2 K | 56.91
280.2 K | 57.15
281.2 K | 57.32
282.2 K | 57.56
283.2 K | 57.81
284.2 K | 57.64
285.2 K | 57.64
286.2 K | 57.89
287.2 K | 58.87
288.2 K | 60.18
289.2 K | 60.02
290.2 K | 60.02
291.2 K | 60.1
292.2 K | 60.59
293.2 K | 61.09
294.2 K | 61
295.2 K | 61.09
296.2 K | 61.5
297.2 K | 61.58
298.2 K | 62.07
299.2 K | 62.48
300.2 K | 62.81
301.2 K | 63.38
302.2 K | 63.63
303.2 K | 64.45
304.2 K | 64.94
305.2 K | 65.35
306.2 K | 65.76
307.2 K | 66.33
308.2 K | 66.74
309.2 K | 67.4
310.2 K | 67.65
311.2 K | 68.06
312.2 K | 68.71
313.2 K | 69.37
314.2 K | 70.11
315.2 K | 70.35
316.2 K | 71.09
317.2 K | 71.66
318.2 K | 72.48
319.2 K | 73.22
320.2 K | 73.88
321.2 K | 75.03
322.2 K | 75.93
323.2 K | 77.24
324.2 K | 78.55
325.2 K | 80.44
326.2 K | 81.91
327.2 K | 83.64
328.2 K | 85.11
